Assay results reported in PubChem BioAssay AID256 (DTP/NCI, 2004).
Several values for one entry are separate records, joined by “and”; a condition that tells them apart may be missing. Identical values can stand only once. Toxic doses and inconclusive results are not listed. Rule for the calls: active = survival T/C of 150% or more; inactive = T/C below 125% in these data.

System: CD2F1 mice, L1210 leukemia ip, survival T/C
Assay: NCI In Vivo Anticancer Drug Screen. Data for tumor model L1210 Leukemia (intraperitoneal) in CD2F1 (CDF1) mice
Conditions: endpoint: mean survival time, higher = longer survival
In short: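 Mice carrying a transplanted tumor received test compound or vehicle alone. The value is the measurement in the treated group divided by that in the vehicle-treated control group.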

[1] = dose: 100.0 mg/kg/injection, schedule: Q01DX009 (ip), vehicle: saline with Tween-80
[2] = dose: 100.0 mg/kg/injection, schedule: Q04DX002 (ip), vehicle: saline with Tween-80
[3] = dose: 100.0 mg/kg/injection, schedule: Q04DX003 (ip), vehicle: saline with Tween-80
[4] = dose: 200.0 mg/kg/injection, schedule: Q01DX009 (ip), vehicle: saline with Tween-80
[5] = dose: 200.0 mg/kg/injection, schedule: Q04DX002 (ip), vehicle: saline with Tween-80
[6] = dose: 200.0 mg/kg/injection, schedule: Q04DX003 (ip), vehicle: saline with Tween-80
[7] = dose: 400.0 mg/kg/injection, schedule: Q01DX009 (ip), vehicle: saline with Tween-80
[8] = dose: 400.0 mg/kg/injection, schedule: Q04DX002 (ip), vehicle: saline with Tween-80
[9] = dose: 400.0 mg/kg/injection, schedule: Q04DX003 (ip), vehicle: saline with Tween-80
[10] = dose: 12.5 mg/kg/injection, schedule: Q01DX009 (ip), vehicle: saline with Tween-80
[11] = dose: 50.0 mg/kg/injection, schedule: Q01DX009 (ip), vehicle: saline with Tween-80

Measured: T/C

CCCCCCCCCC(=O)NC(=S)Nc1c(C)cccc1C
inactive: dose: 25.0 mg/kg/injection, schedule: Q01DX001 (ip), vehicle: saline with Tween-80 95 % of control | dose: 50.0 mg/kg/injection, schedule: Q01DX001 (ip), vehicle: saline with Tween-80 95 % of control | dose: 100.0 mg/kg/injection, schedule: Q01DX001 (ip), vehicle: saline with Tween-80 92 % of control | [1] 92 % of control and 109 % of control | [2] 92 % of control and 96 % of control | [3] 98 % of control | dose: 200.0 mg/kg/injection, schedule: Q01DX001 (ip), vehicle: saline with Tween-80 91 % of control and 92 % of control | [4] 89 % of control and 98 % of control | [5] 98 % of control and 100 % of control | [6] 95 % of control | dose: 400.0 mg/kg/injection, schedule: Q01DX001 (ip), vehicle: saline with Tween-80 88 % of control | [7] 106 % of control | [8] 91 % of control and 96 % of control | [9] 90 % of control

CC(=O)OCC1OC(OC(C)=O)C(NC(=O)Nc2cccc([N+](=O)[O-])c2)C(OC(C)=O)C1OC(C)=O (stereo unspecified)
inactive: dose: 12.5 mg/kg/injection, schedule: Q01DX009 (ip), vehicle: other 96 % of control | dose: 25.0 mg/kg/injection, schedule: Q01DX009 (ip), vehicle: other 96 % of control | dose: 50.0 mg/kg/injection, schedule: Q01DX009 (ip), vehicle: other 98 % of control | dose: 100.0 mg/kg/injection, schedule: Q01DX009 (ip), vehicle: other 100 % of control | dose: 200.0 mg/kg/injection, schedule: Q01DX009 (ip), vehicle: other 93 % of control

CCOP(=O)(Cc1cccc2ccccc12)OCC
inactive: dose: 100.0 mg/kg/injection, schedule: Q01DX001 (ip), vehicle: Klucel (hydroxypropylcellulose) (HPC) 103 % of control | dose: 200.0 mg/kg/injection, schedule: Q01DX001 (ip), vehicle: Klucel (hydroxypropylcellulose) (HPC) 96 % of control | dose: 400.0 mg/kg/injection, schedule: Q01DX001 (ip), vehicle: Klucel (hydroxypropylcellulose) (HPC) 100 % of control

C/C=C\c1ccc(OCCOC(=O)Nc2c(Cl)cccc2Cl)c(OC)c1
inactive: [10] 103 % of control | dose: 25.0 mg/kg/injection, schedule: Q01DX009 (ip), vehicle: saline with Tween-80 97 % of control | [11] 94 % of control and 99 % of control | [1] 94 % of control | [4] 94 % of control

CC(C)c1ccc2c(c1)CCC(C(Cl)Cl)C2(C)C (stereo unspecified)
inactive: [2] 95 % of control | [5] 111 % of control | [8] 100 % of control

Cc1ccccc1NC(=S)Nc1ccccn1
inactive: [1] 95 % of control | [4] 98 % of control | [7] 93 % of control

S=C1NC(/C=C/c2ccccc2)Nc2ccccc21 (stereo unspecified)
inactive: [3] 91 % of control | [6] 87 % of control

CC(C)(C)C(=O)C(Br)S(=O)(=O)C(Br)(Br)C(=O)C(C)(C)C (stereo unspecified)
inactive: [1] 95 % of control | [4] 97 % of control | [7] 95 % of control

C/C(Cc1ccccc1)=N\O
inactive: [3] 103 % of control | [6] 100 % of control | [9] 114 % of control

CCOC(=O)C#CC1CCCCC1
inactive: [11] 98 % of control | [1] 98 % of control | [4] 102 % of control

O=c1[nH]cc(Br)c2sccc12
inactive: [11] 102 % of control | [1] 104 % of control

COc1ccc(NC(=O)Nc2ccccc2F)cc1
inactive: [3] 102 % of control | [6] 101 % of control | [9] 95 % of control

CC(C)(C#N)Nc1ccccc1
inactive: dose: 3.13 mg/kg/injection, schedule: Q01DX009 (ip), vehicle: saline 100 % of control | dose: 6.25 mg/kg/injection, schedule: Q01DX009 (ip), vehicle: saline with Tween-80 91 % of control | dose: 6.25 mg/kg/injection, schedule: Q01DX009 (ip), vehicle: saline 94 % of control | [10] 94 % of control

Cc1n(Cc2ccc(Cl)cc2Cl)cc[n+]1Cc1ccccc1
inactive: dose: 10.0 mg/kg/injection, schedule: Q04DX003 (ip), vehicle: Klucel (hydroxypropylcellulose) (HPC) 100 % of control | dose: 20.0 mg/kg/injection, schedule: Q04DX003 (ip), vehicle: Klucel (hydroxypropylcellulose) (HPC) 105 % of control | dose: 40.0 mg/kg/injection, schedule: Q04DX003 (ip), vehicle: Klucel (hydroxypropylcellulose) (HPC) 92 % of control
